In patent US8178506B2, “Oligomeric compounds and compositions for use in modulation of small non-coding RNAs” (Regulus Therapeutics Inc., priority 2003, dated 2012):
In the oligonucleotide strings, read from the 5' end, every base follows the letter of its sugar. An asterisk marks phosphorothioate; unmarked linkages are phosphodiester. Other units and linkages are bracketed, terminal groups are in braces. A string of capitals states the bases alone. e = 2'-O-(2-methoxyethyl) (MOE); [5mC] = 5-methylcytosine; d = 2'-deoxy (DNA)

Columns and labels:
T47D cells = assay: Cell cycle assay in T47D cells; format: cell-based, human; conditions: 150 nM, 48 hours, relative to untreated control
ob/ob mice = assay: ob/ob mice: plasma parameters, food consumption, marker gene mRNA; format: in vivo, mouse; conditions: ob/ob mice; for mRNA expression levels of the Glut4, aP2 and HSL marker genes: 25 mg/kg two times per week
In short: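 Male C57Bl/6J ob/ob mice received oligomeric compound or control at 25 mg/kg s.c. twice weekly, for 4 weeks on a 10-15% fat diet or for 6 weeks on high-fat diet. Plasma glucose and insulin were measured at 0, 2 and 4 weeks; i.p. glucose/insulin tolerance tests were run; serum lipids, liver triglycerides and histology were assessed, with liver, BAT and WAT mRNA quantified by real-time PCR.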

[1] = 25 mg/kg s.c. two times per week, 6 weeks

| Substance | % cells in cell cycle phase G1 (T47D cells) [%] | % cells in cell cycle phase G2/M (T47D cells) [%] | % cells in cell cycle phase S (T47D cells) [%] | % cells in cell cycle phase aneuploid (T47D cells) [%] | % cells in cell cycle phase subG1 (T47D cells) [%] | plasma glucose levels (fed) (ob/ob mice; [1]) | plasma glucose levels, fasted state (ob/ob mice; day 19) | mRNA expression levels of the Glut4, aP2 and HSL marker genes (ob/ob mice) | plasma cholesterol levels (ob/ob mice; [1]) | plasma triglyceride levels (ob/ob mice; [1]) |
| --- | --- | --- | --- | --- | --- | --- | --- | --- | --- | --- |
| 327902 (antisense eG*eG*e[5mC]*eT*eG*eT*e[5mC]*eA*eA*eT*eT*e[5mC]*eA*eT*eA*eG*eG*eT*e[5mC]*eA*eG) [compound 327902] | 75 | 116 | 120 | 162 | 102 |  |  |  |  |  |
| 327905 (antisense e[5mC]*eA*eG*eA*e[5mC]*eT*e[5mC]*e[5mC]*eG*eG*eT*eG*eG*eA*eA*eT*eG*eA*eA*eG*eG*eA) [compound 327905] | 97 | 103 | 101 | 164 | 81 |  |  |  |  |  |
| 328759 (antisense eG*eA*eG*eG*eG*dA*dT*dT*dG*dT*dA*dT*dG*dA*dA*e[5mC]*eA*eT*e[5mC]*eT) [compound 328759] | 86 | 122 | 87 | 223 | 123 |  |  |  |  |  |
| ACTTTCGGTTATCTAGCTTTA [ISIS 327892] (chemistry not given here) [uniform 2′-MOE PS; targets mir-131-2/mir-9] |  |  |  |  |  | reduced beginning at approximately four weeks after the start of treatment | significant reductions in plasma glucose levels |  |  |  |
| TGAGCTACAGTGCTTCATCTCA [ISIS 327901] (chemistry not given here) [uniform 2′-MOE PS; targets mir-143] |  |  |  |  |  |  |  | slightly reduced |  |  |
| TGAGCTACAGTGCTTCATCTCA [ISIS 340927] (chemistry not given here) [5-10-7 2′-MOE gapmer PS; targets mature mir-143] |  |  |  |  |  | generally slightly lower |  | slightly reduced | slightly decrease over time | generally slightly lower |
